Assay results as given in PubChem BioAssay (NCI).
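Tested at 5 concentrations; 48 h exposure; 96-well plates; endpoints linearly interpolated, else capped at highest concentration. TGI: total growth inhibition.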

Key:
Assay in all cases: NCI anticancer screen, dose series, 48 h
OVCAR-3 ovarian = system: OVCAR-3 ovarian
IGROV1 ovarian = system: IGROV1 ovarian
SK-MEL-28 melanoma = system: SK-MEL-28 melanoma
SK-MEL-2 melanoma = system: SK-MEL-2 melanoma
NCI-H23 lung = system: NCI-H23 lung
SNB-75 CNS = system: SNB-75 CNS
SK-MEL-5 melanoma = system: SK-MEL-5 melanoma
OVCAR-4 ovarian = system: OVCAR-4 ovarian
KM12 colon = system: KM12 colon
COLO 205 colon = system: COLO 205 colon
CCRF-CEM leukemia = system: CCRF-CEM leukemia
T-47D breast = system: T-47D breast
SF-295 CNS = system: SF-295 CNS
MOLT-4 leukemia = system: MOLT-4 leukemia
SF-539 CNS = system: SF-539 CNS
HCT-15 colon = system: HCT-15 colon
K-562 leukemia = system: K-562 leukemia
RPMI-8226 leukemia = system: RPMI-8226 leukemia
SN12C renal = system: SN12C renal
BT-549 breast = system: BT-549 breast
786-0 renal = system: 786-0 renal
PC-3 prostate = system: PC-3 prostate
EKVX NSCLC = system: EKVX NSCLC
ACHN renal = system: ACHN renal
HCT-116 colon = system: HCT-116 colon
RXF 393 renal = system: RXF 393 renal
NCI/ADR-RES ovarian = system: NCI/ADR-RES ovarian
HT29 colon = system: HT29 colon
UO-31 renal = system: UO-31 renal
NCI-H460 lung = system: NCI-H460 lung
HL-60(TB) leukemia = system: HL-60(TB) leukemia
MALME-3M melanoma = system: MALME-3M melanoma
MCF7 breast = system: MCF7 breast
SK-OV-3 ovarian = system: SK-OV-3 ovarian
M14 melanoma = system: M14 melanoma
U251 CNS = system: U251 CNS
A549 NSCLC = system: A549 NSCLC
HOP-62 NSCLC = system: HOP-62 NSCLC
SNB-19 CNS = system: SNB-19 CNS
DU-145 prostate = system: DU-145 prostate
CAKI-1 renal = system: CAKI-1 renal
HCC-2998 colon = system: HCC-2998 colon
TK-10 renal = system: TK-10 renal
OVCAR-5 ovarian = system: OVCAR-5 ovarian
LOX IMVI melanoma = system: LOX IMVI melanoma
SW-620 colon = system: SW-620 colon
UACC-257 melanoma = system: UACC-257 melanoma
NCI-H522 lung = system: NCI-H522 lung
OVCAR-8 ovarian = system: OVCAR-8 ovarian
UACC-62 melanoma = system: UACC-62 melanoma
NCI-H226 lung = system: NCI-H226 lung
MDA-MB-435 = system: MDA-MB-435
SF-268 CNS = system: SF-268 CNS
MDA-N = system: MDA-N
MDA-MB-231 breast = system: MDA-MB-231 breast

`CN(C)/N=N/c1nc2c(c(=O)n(C)c(=O)n2C)n1CC1CO1` (stereo not given) gave a TGI (OVCAR-3 ovarian) of 31.4 µM, a TGI (IGROV1 ovarian) of 29.9 µM and a TGI (SK-MEL-28 melanoma) of 59.7 µM. It also gave a TGI (SK-MEL-2 melanoma) of 23.1 µM, a TGI (NCI-H23 lung) of 25.1 µM and a TGI (SNB-75 CNS) of 43.6 µM. For the same compound, the TGI (SK-MEL-5 melanoma) was 25.5 µM, the TGI (OVCAR-4 ovarian) was 29.4 µM and the TGI (KM12 colon) was 50.7 µM. The TGI (COLO 205 colon) was 27.3 µM, the TGI (CCRF-CEM leukemia) was over 100 µM and the TGI (T-47D breast) was 80 µM. For the same compound, the TGI (SF-295 CNS) was 56.9 µM, the TGI (MOLT-4 leukemia) was over 100 µM and the TGI (SF-539 CNS) was 22.5 µM. For the same compound, the TGI (HCT-15 colon) was 29.1 µM, the TGI (K-562 leukemia) was 60.2 µM and the TGI (RPMI-8226 leukemia) was 93.1 µM. It also gave a TGI (SN12C renal) of 46.7 µM, a TGI (BT-549 breast) of 52.7 µM and a TGI (786-0 renal) of 57.5 µM. It also gave a TGI (PC-3 prostate) of 56.4 µM, a TGI (EKVX NSCLC) of 57.9 µM and a TGI (ACHN renal) of 41.9 µM. For the same compound, the TGI (HCT-116 colon) was 24 µM, the TGI (RXF 393 renal) was 15.8 µM and the TGI (NCI/ADR-RES ovarian) was 41.1 µM. It also gave a TGI (HT29 colon) of 35.1 µM, a TGI (UO-31 renal) of 31.3 µM and a TGI (NCI-H460 lung) of 21.7 µM. It also gave a TGI (HL-60(TB) leukemia) of over 100 µM, a TGI (MALME-3M melanoma) of 25.1 µM and a TGI (MCF7 breast) of 26.1 µM. It also gave a TGI (SK-OV-3 ovarian) of 61.7 µM, a TGI (M14 melanoma) of 32.6 µM and a TGI (U251 CNS) of 35.2 µM. For the same compound, the TGI (A549 NSCLC) was 69.4 µM, the TGI (HOP-62 NSCLC) was 34.4 µM and the TGI (SNB-19 CNS) was 78.2 µM. The TGI (DU-145 prostate) was 37.5 µM, the TGI (CAKI-1 renal) was 38.9 µM and the TGI (HCC-2998 colon) was 25.3 µM. The TGI (TK-10 renal) was 37.7 µM, the TGI (OVCAR-5 ovarian) was over 100 µM and the TGI (LOX IMVI melanoma) was 23.7 µM. For the same compound, the TGI (SW-620 colon) was 36.8 µM, the TGI (UACC-257 melanoma) was 43.9 µM and the TGI (NCI-H522 lung) was 29.7 µM. It also gave a TGI (OVCAR-8 ovarian) of 36.7 µM, a TGI (UACC-62 melanoma) of 24.8 µM and a TGI (NCI-H226 lung) of 38.3 µM. It also gave a TGI (MDA-MB-435) of 35.6 µM, a TGI (SF-268 CNS) of 33.6 µM and a TGI (MDA-N) of 46.7 µM. For the same compound, the TGI (MDA-MB-231 breast) was 68.1 µM.
